Data as given in ChEMBL document CHEMBL1287708, “Synthesis, biological evaluation and radiolabelling by 18F-fluoroarylation of a dopamine D3-selective ligand as prospective imaging probe for PET” (Bioorg Med Chem Lett, 2010).

Assays:
[1] = Lipophilicity, log D of the compound in n-octanol-phosphate buffered saline at pH 7.4; assay type: physicochemical
Cortex [2] = test: Drug uptake in Sprague-Dawley rat cortex at 9.3 MBq, iv measured after 45 mins by autoradiography in presence of 1 mg/kg BP897; assay type: ADME, organism-based; set-up: dose 1 mg/kg, route intravenous; conditions: in vivo, 0.75 h
[3] = tested on: brain ventricle (Rattus norvegicus); test: Drug uptake in Sprague-Dawley rat brain ventricle at 9.3 MBq, iv measured after 45 mins by autoradiography in presence of 1 mg/kg BP897; conditions: in vivo, 0.75 h
Striatum [4] = test: Drug uptake in Sprague-Dawley rat striatum at 8.5 MBq, iv measured after 45 mins by autoradiography; assay type: ADME, organism-based; conditions: in vivo, 0.75 h
Cortex [5] = test: Drug uptake in Sprague-Dawley rat cortex at 8.5 MBq, iv measured after 45 mins by autoradiography; assay type: ADME, organism-based; conditions: in vivo, 0.75 h
[6] = tested on: brain ventricle (Rattus norvegicus); test: Drug uptake in Sprague-Dawley rat brain ventricle at 8.5 MBq, iv measured after 45 mins by autoradiography; conditions: in vivo, 0.75 h
Striatum [7] = test: Drug uptake in Sprague-Dawley rat striatum at 9.3 MBq, iv measured after 45 mins by autoradiography in presence of 1 mg/kg BP897; assay type: ADME, organism-based; set-up: dose 1 mg/kg, route intravenous; conditions: in vivo, 0.75 h
D(4) dopamine receptor = molecular target: T1, D(4) dopamine receptor (Homo sapiens, UniProt P21917); test: Displacement of [3H]spiperone from human dopamine D4.4 receptor expressed in CHO cells; assay type: cell-based
T1 sequence (P21917 whole entry): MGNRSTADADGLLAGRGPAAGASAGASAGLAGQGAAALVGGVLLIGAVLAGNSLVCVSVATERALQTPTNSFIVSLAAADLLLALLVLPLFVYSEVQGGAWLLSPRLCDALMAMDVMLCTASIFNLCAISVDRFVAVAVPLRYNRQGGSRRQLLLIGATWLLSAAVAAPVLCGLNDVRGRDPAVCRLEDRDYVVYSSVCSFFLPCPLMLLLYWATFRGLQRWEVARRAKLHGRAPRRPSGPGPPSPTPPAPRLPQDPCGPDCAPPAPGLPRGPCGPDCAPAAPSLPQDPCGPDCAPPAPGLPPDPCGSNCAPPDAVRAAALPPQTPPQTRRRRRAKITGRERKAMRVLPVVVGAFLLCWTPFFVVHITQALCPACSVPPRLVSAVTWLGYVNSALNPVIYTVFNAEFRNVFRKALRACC

D(3) dopamine receptor [8] = molecular target: T2, D(3) dopamine receptor (Homo sapiens, UniProt P35462); test: biochemical
T2 sequence (P35462 whole entry): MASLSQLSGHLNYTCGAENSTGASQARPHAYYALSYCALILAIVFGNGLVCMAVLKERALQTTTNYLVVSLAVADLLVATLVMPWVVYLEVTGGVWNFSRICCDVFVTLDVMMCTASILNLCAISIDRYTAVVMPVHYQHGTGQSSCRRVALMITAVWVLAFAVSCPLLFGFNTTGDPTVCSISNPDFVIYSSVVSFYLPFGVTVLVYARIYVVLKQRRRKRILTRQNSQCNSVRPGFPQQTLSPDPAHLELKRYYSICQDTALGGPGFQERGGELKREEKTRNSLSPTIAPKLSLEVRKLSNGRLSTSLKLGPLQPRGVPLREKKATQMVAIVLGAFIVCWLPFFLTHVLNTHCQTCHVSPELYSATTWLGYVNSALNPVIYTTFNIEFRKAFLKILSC
Description: Displacement of [3H]spiperone from human dopamine D3 receptor expressed in CHO cells

D(1A) dopamine receptor = D(1A) dopamine receptor (Sus scrofa, UniProt P50130); test: Displacement of [3H][…] from dopamine D1 receptor in porcine cerebral cortex membranes; assay type: cell membranes, Membrane
Sequence of D(1A) dopamine receptor (P50130 whole entry): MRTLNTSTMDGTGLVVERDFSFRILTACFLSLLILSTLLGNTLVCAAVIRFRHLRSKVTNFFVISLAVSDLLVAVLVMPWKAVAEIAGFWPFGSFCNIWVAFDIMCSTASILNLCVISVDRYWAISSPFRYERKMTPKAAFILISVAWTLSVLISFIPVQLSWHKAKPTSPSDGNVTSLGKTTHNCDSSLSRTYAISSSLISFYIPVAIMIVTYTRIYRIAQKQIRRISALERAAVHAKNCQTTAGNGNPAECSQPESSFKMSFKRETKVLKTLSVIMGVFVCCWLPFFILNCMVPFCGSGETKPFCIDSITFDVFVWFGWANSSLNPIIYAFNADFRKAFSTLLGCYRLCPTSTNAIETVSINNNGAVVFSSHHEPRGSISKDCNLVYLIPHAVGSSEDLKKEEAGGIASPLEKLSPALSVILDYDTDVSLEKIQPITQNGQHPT

[9] = molecular target: 5-hydroxytryptamine receptor 2A (Sus scrofa, UniProt P50129); test: Displacement of [3H]ketanserin from 5-HT2 receptor in porcine cerebral cortex membranes; assay type: cell membranes, Membrane
Sequence of 5-hydroxytryptamine receptor 2A (P50129 whole entry): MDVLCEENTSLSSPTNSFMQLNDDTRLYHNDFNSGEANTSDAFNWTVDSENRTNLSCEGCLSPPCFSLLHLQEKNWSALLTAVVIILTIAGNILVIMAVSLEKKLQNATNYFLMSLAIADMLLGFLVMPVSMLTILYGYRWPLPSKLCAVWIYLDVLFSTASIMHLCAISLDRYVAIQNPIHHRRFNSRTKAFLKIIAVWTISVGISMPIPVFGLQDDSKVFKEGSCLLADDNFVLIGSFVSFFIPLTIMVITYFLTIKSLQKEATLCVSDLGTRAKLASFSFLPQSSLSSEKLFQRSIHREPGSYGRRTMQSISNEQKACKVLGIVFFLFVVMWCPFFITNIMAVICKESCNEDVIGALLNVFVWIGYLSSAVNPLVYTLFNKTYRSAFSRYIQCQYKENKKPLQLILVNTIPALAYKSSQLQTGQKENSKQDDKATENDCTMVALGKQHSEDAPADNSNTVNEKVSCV

[10] = Displacement of [3H]prazosin from alpha1 adrenoceptor in porcine cerebral cortex membranes; assay type: cell membranes, Sus scrofa, Membrane
D(2) dopamine receptor [11] = molecular target: T3, D(2) dopamine receptor (Homo sapiens, UniProt P14416); test: Agonist activity at human dopamine receptor D2long expressed in CHO10001 cells assessed as stimulation of incorporation [3H]-thymidine incorporation; assay type: functional, cell-based
T3 sequence (P14416 whole entry): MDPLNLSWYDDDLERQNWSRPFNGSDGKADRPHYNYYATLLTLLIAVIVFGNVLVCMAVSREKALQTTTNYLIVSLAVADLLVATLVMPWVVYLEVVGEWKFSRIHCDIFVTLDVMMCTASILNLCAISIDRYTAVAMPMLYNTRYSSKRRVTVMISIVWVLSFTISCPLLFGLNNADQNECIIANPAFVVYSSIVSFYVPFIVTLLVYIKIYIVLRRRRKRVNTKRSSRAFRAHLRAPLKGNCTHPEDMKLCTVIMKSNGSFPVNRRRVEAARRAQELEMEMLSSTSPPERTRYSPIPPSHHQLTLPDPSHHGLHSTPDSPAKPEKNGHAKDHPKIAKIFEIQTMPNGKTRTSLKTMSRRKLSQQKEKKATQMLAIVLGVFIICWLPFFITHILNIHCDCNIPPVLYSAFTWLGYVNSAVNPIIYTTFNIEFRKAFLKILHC

D(2) dopamine receptor [12] = molecular target: T3, D(2) dopamine receptor; test: Displacement of [3H]spiperone from human dopamine D2long receptor expressed in CHO cells; assay type: cell-based
[13] = Displacement of [3H][…] from 5-HT1A receptor in porcine cerebral cortex membranes; assay type: cell membranes, Sus scrofa, Membrane
D(3) dopamine receptor [14] = molecular target: T2, D(3) dopamine receptor; test: Agonist activity at human dopamine D3 receptor expressed in CHO dhfr-negative cells assessed as stimulation of [3H]-thymidine incorporation; assay type: functional, cell-based

| logD [1] | Drug uptake (Cortex [2]) | Drug uptake [3] | Drug uptake (Striatum [4]) | Drug uptake (Cortex [5]) | Drug uptake [6] | Drug uptake (Striatum [7]) | Ki (D(4) dopamine receptor) | Ki (D(3) dopamine receptor [8]) | Ki (D(1A) dopamine receptor) | Ki [9] | Ki [10] | EC50 (D(2) dopamine receptor [11]) | Ki (D(2) dopamine receptor [12]) | Ki [13] | EC50 (D(3) dopamine receptor [14]) | Compound |
| --- | --- | --- | --- | --- | --- | --- | --- | --- | --- | --- | --- | --- | --- | --- | --- | --- |
| 2.07 | 3120 cpm/mm2 | 18275 cpm/mm2 | 28851 cpm/mm2 | 32293 cpm/mm2 | 38717 cpm/mm2 | 3086 cpm/mm2 | – | – | – | – | – | – | – | – | – | COc1ccccc1N1CCN(CCCCNC(=O)/C=C/c2ccc([18F])cc2)CC1 |
| – | – | – | – | – | – | – | 43 nM | 0.34 nM | 1100 nM | 330 nM | 5.2 nM | 1.7 nM | 27 nM | 28 nM | 3.9 nM | COc1ccccc1N1CCN(CCCCNC(=O)/C=C/c2ccc(F)cc2)CC1 |
| – | – | – | – | – | – | – | 170 nM | 0.51 nM | 270 nM | 250 nM | 8 nM | – | – | 100 nM | – | N#[11C]c1cccc(N2CCN(CCN3CCC(C(F)(F)F)CC3)C2=O)c1 |
